Experiments:
[1] = particle size by laser light diffraction; format: physicochemical; conditions: micronized, screened through #25 screen
From the text: (R)-2-Amino-7-[4-fluoro-2-(6-methoxy-pyridin-2-yl)-phenyl]-4-methyl-7,8-dihydro-6H-pyrido[4,3-d]pyrimidin-5-one was micronized and screened through a #25 screen to a D average particle size of about 2 microns, with laser light diffraction yielding the following results: D(10) 0.78 μm, D(50) 2.18 μm, and D(90) 3.95 μm. The micronized (R)-2-amino-7-[4-fluoro-2-(6-methoxy-pyridin-2-yl)-phenyl]-4-methyl-7,8-dihydro-6H-pyrido[4,3-d]pyrimidin-5-one was then screened and added to a mixing bin along with the succinic acid and part A (50%) of the microcrystalline cellulose. The contents in the mixing bin were mixed for 150 revolutions, screened through a #40 screen and combine with a screened (#40 screen) mixture of AEROSIL 200, crospovidone, and the remaining other part B (50%) of the microcrystalline cellulose. This combination was mixed for 250 revolutions and screened through a #40 screen, and then combine with a first frozen and then milled mixture of vitamin E TPGS (screen no. 0063 using a Fitz mill) and magnesium stearate that was passed through at #30 mesh, to form a final combination, which was then blended together for 150 revolutions and encapsulated in a hard gelatin capsule using an encapsulation machine.

[2] = solubility and dissolution rate in aqueous media; format: physicochemical
From the text: Even at a lower pH of 1, the dissolution rate of (R)-2-amino-7-[4-fluoro-2-(6-methoxy-pyridin-2-yl)-phenyl]-4-methyl-7,8-dihydro-6H-pyrido[4,3-d]pyrimidin-5-one is too slow. The present inventors have discovered that, when (R)-2-amino-7-[4-fluoro-2-(6-methoxy-pyridin-2-yl)-phenyl]-4-methyl-7,8-dihydro-6H-pyrido[4,3-d]pyrimidin-5-one is in the presence of a surfactant or an acid, the problems of a low solubility and a slow dissolution rate are overcome, resulting in (R)-2-amino-7-[4-fluoro-2-(6-methoxy-pyridin-2-yl)-phenyl]-4-methyl-7,8-dihydro-6H-pyrido[4,3-d]pyrimidin-5-one being soluble in aqueous solution and a dissolution rate that is unexpectedly faster and higher.

D(10) particle size [1]: 0.78 μm
D(50) particle size [1]: 2.18 μm
D(90) particle size [1]: 3.95 μm
solubility ([2]; aqueous media with a pH above 3): very low solubility
dissolution rate ([2]; pH of 1): too slow
Compound: COc1cccc(-c2cc(F)ccc2[C@H]2Cc3nc(N)nc(C)c3C(=O)N2)n1 [(R)-2-amino-7-[4-fluoro-2-(6-methoxy-pyridin-2-yl)-phenyl]-4-methyl-7,8-dihydro-6H-pyrido[4,3-d]pyrimidin-5-one]
